Data published in patent US20230085307A1, “PYRIDAZINONE COMPOUND AND HERBICIDE” (NISSAN CHEMICAL CORPORATION, priority 2019, published 2023).

Key:
[1] = test system: Japanese bulrush; assay: Test Example 1: herbicidal activity, application before weed generation under submerged conditions (Table 16, symbol B); assay type: in vivo, Japanese bulrush (Schoenoplectus juncoides); details: 320 g/ha applied herbicide
Outline: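 Submerged Wagner pots (alluvial soil, 4 cm water) sown with weed seeds and planted with 2.5-leaf rice seedlings; emulsifiable concentrate diluted in water applied to water surface on sowing day. Held in greenhouse at 25-30 °C; injury scored 0-5 by herbicidal rate after three weeks.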

[2] = test system: blackgrass; assay: Test Example 4: herbicidal effect by soil treatment (Table 19, symbol J); assay type: in vivo, blackgrass (Alopecurus myosuroides); details: AAH 320 g/ha
Outline: (§1)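 Soil-surface application: an emulsion agent diluted with water to the predetermined dose is sprayed uniformly over seeds lying under roughly 1.5 cm of sterilized diluvial soil. Boxes stay in a greenhouse at 25° C. to 30° C. Three weeks later, each species is graded on previously defined criteria.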

[3] = test system: windgrass; assay: Test Example 4: herbicidal effect by soil treatment (Table 19, symbol L); assay type: in vivo, windgrass (Apera spica-venti); details: AAH 320 g/ha
Outline: as §1

[4] = test system: Italian ryegrass; assay: Test Example 5: herbicidal effect by foliage application, plastic box (Table 20, symbol K); assay type: in vivo, Italian ryegrass (Lolium multiflorum); details: foliage application, 320 g/ha, 3 weeks after application
Outline: (§2)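 Sow seeds spot-wise in sterilized diluvial soil; cover with ~1.5 cm soil. Grow 14 days in greenhouse, 25° C. to 30° C. Spray foliage with emulsion diluted to predetermined amount. Rate effect after 3 weeks.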

[5] = test system: lambsquarters; assay: Test Example 4: herbicidal effect by soil treatment (Table 19, symbol O); assay type: in vivo, lambsquarters (Chenopodium album); details: AAH 320 g/ha
Outline: as §1

[6] = test system: southern crabgrass; assay: Test Example 4: herbicidal effect by soil treatment (Table 19, symbol F); assay type: in vivo, southern crabgrass (Digitaria ciliaris); details: AAH 320 g/ha
Outline: as §1

[7] = test system: green foxtail; assay: Test Example 5: herbicidal effect by foliage application, plastic box (Table 20, symbol G); assay type: in vivo, green foxtail (Setaria viridis); details: foliage application, 320 g/ha, 3 weeks after application
Outline: as §2

[8] = test system: late watergrass; assay: Test Example 2: herbicidal activity, application during weed generation under submerged conditions (Table 17, symbol A); assay type: in vivo, late watergrass (Echinochloa oryzicola); details: AAH 320 g/ha; application during weed generation, submerged conditions
Outline: (§3)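 3-wk visual-criteria score after one water-surface dose. Emulsion formulation, water-diluted to set rate; applied at 1–2 leaf stage; alluvial soil, 4 cm standing water; seeds co-sown; greenhouse 25–30° C.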

[9] = test system: oval-leafed pondweed; assay: Test Example 2: herbicidal activity, application during weed generation under submerged conditions (Table 17, symbol C); assay type: in vivo, oval-leafed pondweed (Monochoria vaginalis); details: AAH 320 g/ha; application during weed generation, submerged conditions
Outline: as §3

[10] = test system: lambsquarters; assay: Test Example 5: herbicidal effect by foliage application, plastic box (Table 20, symbol O); assay type: in vivo, lambsquarters (Chenopodium album); details: foliage application, 320 g/ha, 3 weeks after application
Outline: as §2

[11] = test system: velvetleaf; assay: Test Example 5: herbicidal effect by foliage application, plastic box (Table 20, symbol M); assay type: in vivo, velvetleaf (Abutilon theophrasti); details: foliage application, 320 g/ha, 3 weeks after application
Outline: as §2

[12] = test system: Italian ryegrass; assay: Test Example 4: herbicidal effect by soil treatment (Table 19, symbol K); assay type: in vivo, Italian ryegrass (Lolium multiflorum); details: AAH 320 g/ha
Outline: as §1

[13] = test system: Chinese sprangletop; assay: Test Example 3: herbicidal effect by foliage application, Wagner pot (Table 18, symbol D); assay type: in vivo, chinese sprangletop (Leptochloa chinensis); details: 320 g/ha
Outline: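 Plants were sown in alluvial soil held under 0.1–0.5 cm standing water and grown 14 days in a greenhouse at 25–30 °C. An emulsifiable formulation, water-diluted to the set dose, was then sprayed onto the foliage, and effects were scored three weeks later using previously defined criteria.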

[14] = test system: wild oat; assay: Test Example 4: herbicidal effect by soil treatment (Table 19, symbol I); assay type: in vivo, wild oat (Avena fatua); details: AAH 320 g/ha
Outline: as §1

SMILES	Herbicidal effect on B: Japanese bulrush (grade 0-5) [1]	J: blackgrass, herbicidal effect rating [2]	L: windgrass, herbicidal effect rating [3]	effect on Italian ryegrass (K) [4]	O: lambsquarters, herbicidal effect rating [5]	F: southern crabgrass, herbicidal effect rating [6]	effect on green foxtail (G) [7]	herbicidal effect rating, A: late watergrass [8]	herbicidal effect rating, C: oval-leafed pondweed [9]	effect on lambsquarters (O) [10]	effect on velvetleaf (M) [11]	K: Italian ryegrass, herbicidal effect rating [12]	herbicidal effect on D (Chinese sprangletop), rating 0-5 [13]	I: wild oat, herbicidal effect rating [14]
CCC(COc1ccc(-c2sc3ccccc3c2-c2c(O)c(C)nn(C)c2=O)cc1)OC (racemic) [1-230]	5 (Herbicidal rate of 90% or more (almost completely withered))	4 (Herbicidal rate of 70% or more and less than 90%)	0 (Herbicidal rate of 5% or less (almost no effect))	4 (Herbicidal rate of 70% or more and less than 90%)	5 (Herbicidal rate of 90% or more (almost completely withered))	0 (Herbicidal rate of 5% or less (almost no effect))	5 (Herbicidal rate of 90% or more (almost completely withered))	4 (Herbicidal rate of 70% or more and less than 90%)	4 (Herbicidal rate of 70% or more and less than 90%)	5 (Herbicidal rate of 90% or more (almost completely withered))	5 (Herbicidal rate of 90% or more (almost completely withered))	4 (Herbicidal rate of 70% or more and less than 90%)	5 (Herbicidal rate of 90% or more (almost completely withered))	0 (Herbicidal rate of 5% or less (almost no effect))
Cc1nn(C)c(=O)c(-c2c(-c3ccc(OCCBr)cc3)sc3ccccc23)c1O [1-204]	3 (Herbicidal rate of 40% or more and less than 70%)	0 (Herbicidal rate of 5% or less (almost no effect))	0 (Herbicidal rate of 5% or less (almost no effect))	3 (Herbicidal rate of 40% or more and less than 70%)	3 (Herbicidal rate of 40% or more and less than 70%)	0 (Herbicidal rate of 5% or less (almost no effect))	4 (Herbicidal rate of 70% or more and less than 90%)	0 (Herbicidal rate of 5% or less (almost no effect))	2 (Herbicidal rate of 20% or more and less than 40%)	4 (Herbicidal rate of 70% or more and less than 90%)	5 (Herbicidal rate of 90% or more (almost completely withered))	0 (Herbicidal rate of 5% or less (almost no effect))	2 (Herbicidal rate of 20% or more and less than 40%)	0 (Herbicidal rate of 5% or less (almost no effect))
Cc1nn(C)c(=O)c(-c2c(-c3ccc(OCCC(F)(F)F)cc3)sc3ccccc23)c1O [1-206]	5 (Herbicidal rate of 90% or more (almost completely withered))	4 (Herbicidal rate of 70% or more and less than 90%)	3 (Herbicidal rate of 40% or more and less than 70%)	5 (Herbicidal rate of 90% or more (almost completely withered))	5 (Herbicidal rate of 90% or more (almost completely withered))	4 (Herbicidal rate of 70% or more and less than 90%)	5 (Herbicidal rate of 90% or more (almost completely withered))	5 (Herbicidal rate of 90% or more (almost completely withered))	5 (Herbicidal rate of 90% or more (almost completely withered))	5 (Herbicidal rate of 90% or more (almost completely withered))	5 (Herbicidal rate of 90% or more (almost completely withered))	5 (Herbicidal rate of 90% or more (almost completely withered))	5 (Herbicidal rate of 90% or more (almost completely withered))	0 (Herbicidal rate of 5% or less (almost no effect))
